In publication PMC6337631, “Effective Tetradentate Compound Complexes against Leishmania spp. that Act on Critical Enzymatic Pathways of These Parasites” (Molecules, 2018):

Tests used:
[1] = system: L. braziliensis promastigotes; assay: Ultrastructural alterations by TEM, L. braziliensis; type: cell-based, Leishmania braziliensis; conditions: 72 h at IC25 concentration
Experimental: Parasites were cultured at a density of 5 × 10^5 cells/mL with medium containing the tested compounds at IC25 concentrations. After 72 h at 28 °C, the cultures were processed using a technique previously described and analysed by TEM (LIBRA 120 PLUS, Zeiss, Barcelona, Spain).

[2] = system: L. donovani promastigotes; assay: Metabolite excretion by 1H-NMR, L. donovani; type: cell-based, Leishmania donovani; conditions: IC25 concentration, 72 h, vs untreated
Experimental: Trypanosomatids catabolizes glucose at a high rate, excreting into the medium partly oxidized end products such as acetate, succinate, L-alanine or L-lactate.
Cultures of L. donovani, L. infantum and L. braziliensis promastigotes were seeded in culture flaks at 5 × 10^5 cells/mL, and after the addition of the compounds at IC25 concentrations at 28 °C. Control cultures were also included. After 72 h of incubation, parasites were centrifuged at 400 × g for 10 min, and supernatants were collected in order to determine the excreted metabolites by ^1H-NMR. Chemical shifts were expressed in parts per million (ppm) using sodium 2,2-dimethyl-2-silapentane-5-sulphonate as the reference signal. The One-dimensional ^1H-NMR spectra were acquired with a VARIAN DIRECT DRIVE 400 MHz Bruker spectrometer (Rheinstetten, Germany) with an AutoX probe using D2O as solvent. The chemical shifts used to identify the respective metabolites were consistent with those described previously by some of the authors. The spectral region of 1.0–5.5 ppm was bucketed into a frequency window of 0.1 ppm. The peak (2.6 ppm) corresponding to DMSO was removed before binning, and the regions corresponding to water (4.5–5.5 ppm) and glucose (3.4–3.8 ppm) were excluded during binning to avoid artefacts due to pre-saturation. The aromatic region was excluded because the signal to noise ratio in this region was poorer in comparison to the aliphatic region. The resulting integrals were normalised to the working region (1.0–3.4) ppm of the spectrum to correct for inter-sample differences in dilution. The binning and normalisations were achieved using Mestrenova 9.0 software (Santiago de Compostela, Spain). The matrix obtained in Mestrenova was imported into Microsoft Excel (Redmond, WA, USA) for further data analyses.

[3] = system: Leishmania braziliensis promastigote forms; assay: Promastigote test (extracellular forms), L. braziliensis; type: cell-based; conditions: Leishmania braziliensis; 72 h; 100 µM to 1 µM; mean ± SD
Experimental: (§1) Promastigote forms of three different Leishmania spp., L. donovani (MHOM/PE/84/LC26), L. infantum (MCAN/ES/2001/UCM-10) and L. braziliensis (MHOM/BR/1975/M2904), were cultured in vitro in Medium Trypanosomes Liquid (MTL) supplemented with 10% inactivated foetal calf serum (FCS) in an air atmosphere at 28 °C, in Roux flasks (Corning, Manassas, VA, USA) with a surface area of 75 cm^2, according to [33].
(§2) The compounds and the reference drug Glu were dissolved in DMSO (Panreac, Barcelona, Spain) and tested from 100 µM to 1 µM with 0.1% (v/v) DMSO final concentration in plates. Therefore, controls were prepared including 0.1% (v/v) of this component, as previously described.
(§3) Promastigote forms were collected in the exponential growth phase and seeded at 1 × 10^5 parasites/mL in 24-well microplates (Nunc, Naperville, IL, USA), after adding each compound at concentrations from 100 µM to 1 µM and cultured in 500 μL/well volumes at 28 °C. After 72 h incubation, the leishmanicidal activity was assessed using a Neubauer haemocytometric chamber in comparison with the control cultures. […] Each drug concentration was tested in triplicate in four separate determinations.

human CuZn-SOD = target: T1, human CuZn-SOD (Homo sapiens, UniProt P00441); assay: SOD inhibition assay, human CuZn-SOD; type: biochemical; conditions: assayed 100 µM to 0.1 µM; non-linear regression
T1 construct: purchased Sigma Chemical Co. (St. Louis, MO, USA)
Experimental: The previous extraordinary results prompted us to evaluate the inhibitory effect of 3, 5–8 and 10 on the SOD activity. […]
Parasite cells were collected in the exponential growth phase by centrifugation (400g for 10 min). The pellet obtained after centrifugation was lysated by sonication, processed according to [38] and obtained the homogenate fraction which contained the parasite Fe-SOD. The protein content was quantified using the Sigma Bradford test, which uses BSA as a standard (no trace ability was certified for the BSA standard). Superoxide dismutase activities were determined using a method previously described, which measures the reduction in nitrobluetetrazolium (NBT) by superoxide ions. Human CuZn-SOD. Substrates used in these assays were obtained from Sigma Chemical Co. (St. Louis, MO, USA). Resulting data were analysed using the Newman−Keuls test.

[4] = system: Leishmania infantum amastigote forms; assay: Amastigote test (intracellular forms in J774.2 macrophages), L. infantum; type: cell-based; conditions: Leishmania infantum, 72 h, mean ± SD
Experimental: as §1, §2
J774.2 macrophages were grown and seeded at a density of 1 × 10^4 cells/well in 24-well microplates (Nunc) with rounded coverslips on the bottom and cultured for 48 h in humidified 95% air, 5% CO2 atmosphere at 37 °C in Minimal Essential Medium (MEM) with 2 mM glutamine and 20% (v/v) inactivated FCS. Adherent macrophages were infected with metacyclic promastigotes in the stationary growth phase of L. donovani, L. infantum and L. braziliensis at a multiplicity of infection (MOI) ratio of 1:10 and maintained for 24 h. Non-phagocytosed parasites were removed by washing, and after addition of the testing compounds at concentrations from 100 µM to 1 µM, cultured in 500 μL/well volumes. Control cultures were also included. After 72 h incubation, leishmanicidal activity was assessed based on the number of amastigotes in treated and untreated cultures in methanol-fixed and Giemsa-stained preparations by analyzing 500 host cells distributed in randomly chosen microscopic fields. The leishmanicidal effect was calculated as described to determine the leishmanicidal activity in the promastigote forms. Each drug concentration was tested in triplicate in four separate determinations.

[5] = system: Leishmania infantum promastigote forms; assay: Promastigote test (extracellular forms), L. infantum; type: cell-based; conditions: Leishmania infantum; 72 h; 100 µM to 1 µM; mean ± SD of four determinations
Experimental: as §1, §2, §3

T1 sequence (P00441 whole entry): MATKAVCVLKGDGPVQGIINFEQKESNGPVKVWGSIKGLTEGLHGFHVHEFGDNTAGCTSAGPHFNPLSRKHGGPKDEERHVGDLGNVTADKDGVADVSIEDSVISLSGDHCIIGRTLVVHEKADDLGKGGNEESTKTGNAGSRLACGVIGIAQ

Compound: CN(C)c1ccnc(CN2CCC[C@H]2[C@@H]2CCCN2Cc2cc(N(C)C)ccn2)c1 [Compound 7]
- ultrastructural alterations of L. braziliensis promastigotes (TEM) [1]: damaged, swollen, and full of vacuoles
- Excretion variation ACETATE, L. donovani [2]: > 50%
- Excretion variation L-ALANINE, L. donovani [2]: 64%
- Excretion variation SUCCINATE, L. donovani [2]: > 50%
- IC50 [3]: 11.7 ± 0.8 µM
- IC50 (human CuZn-SOD): > 500 µM
- IC50 [4]: 9 ± 0.4 µM
- IC50 [5]: 12.3 ± 2.2 µM
